Measured values taken from paper PMC4444023 (PLoS ONE, 2015).
Entries after “also recorded” stand apart in the source; their conditions may differ.

Tests used:
[1] = tested on: BCL6-expressing Burkitt lymphoma cell lines; design: method as in PMID 16618762; details: cited from earlier work
SIRT2 = details: NAD-dependent deacetylase activity; cited from earlier work
[2] = tested on: rat primary hippocampal neurons; test: Dendrite length (MAP2 imaging); assay type: cell-based; details: for dendrite length, Mean: in µm (unit assumed)
Procedure: Quantification of neuronal morphology was done in primary hippocampal neurons plated in PEI-coated ultra-thin and optically clear flat bottom 96-well plates (Corning). […] Neurons were then fixed with 4% paraformaldehyde, and permeabilized with 0.1% Triton X-100 in phosphate-buffered saline (PBS-T) for 20 min at room temperature. Blocking was done for 1 h with 5% normal goat serum solution, then incubation with anti-MAP2 antibody (1:500, Sigma) was done, followed by three washes with PBS-T and 2 h incubation with Alexa 595 secondary antibody (1:500, Life Technologies). Dendrites were imaged with a 20X objective using a Zeiss Axio Observer Z1 microscope equipped with an Orca ER CCD camera (Hamamatsu Inc). A 6x6 image was obtained from each culture well, and a montage was created using Neurolucida imaging software (mbf Biosecience). The effects of the experimental treatments on dendrite length were determined and the results presented are the average of 5–6 individual experiments. Statistical significance was determined by one-way ANOVA analysis.

B. cereus nSMase = B. cereus nSMase (Bacillus cereus, UniProt P11889); test: Inhibition of bacterial nSMase (not shown); assay type: biochemical
macrophages = details: cited from earlier work
human nSMase2 [3] = target: T1, human nSMase2 (Homo sapiens, UniProt Q9NY59); test: Fluorescence (Amplex red coupled) nSMase2 activity assay; assay type: biochemical; design: Full length human nSMase2 cDNA with a C-terminal Flag tag; crude cell lysate used as enzyme
T1 sequence (Q9NY59 1-655): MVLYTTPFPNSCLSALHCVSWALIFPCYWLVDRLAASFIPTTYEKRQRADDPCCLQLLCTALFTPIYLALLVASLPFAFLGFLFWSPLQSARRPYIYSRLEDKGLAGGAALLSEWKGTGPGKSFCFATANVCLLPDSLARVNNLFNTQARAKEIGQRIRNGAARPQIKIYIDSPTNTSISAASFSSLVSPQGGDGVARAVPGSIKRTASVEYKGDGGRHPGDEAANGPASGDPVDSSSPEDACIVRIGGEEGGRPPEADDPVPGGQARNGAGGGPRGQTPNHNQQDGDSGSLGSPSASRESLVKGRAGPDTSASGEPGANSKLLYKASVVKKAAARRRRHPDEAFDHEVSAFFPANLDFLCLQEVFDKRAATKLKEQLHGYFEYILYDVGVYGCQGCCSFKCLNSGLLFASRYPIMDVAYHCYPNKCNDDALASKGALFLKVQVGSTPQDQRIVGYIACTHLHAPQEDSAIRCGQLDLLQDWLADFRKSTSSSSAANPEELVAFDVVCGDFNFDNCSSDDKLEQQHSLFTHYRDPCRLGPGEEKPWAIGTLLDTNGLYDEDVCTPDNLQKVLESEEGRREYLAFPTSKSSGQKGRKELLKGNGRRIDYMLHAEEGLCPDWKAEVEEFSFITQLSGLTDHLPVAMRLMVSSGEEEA
Procedure: The production of the latter was coupled to a dephosphorylation reaction catalyzed by alkaline phosphatase (4 U/ml) to produce choline, followed by oxidation of choline by choline oxidase (0.1 U/ml) to produce betaine and H2O2, which in the presence of horseradish peroxidase (HRP, 1U/ml) and 50 μM Amplex red, generates the fluorescent molecule resorufin (Life Technologies). Substrate stock solution was prepared in 2% Triton X-100, vortexed and sonicated for 30 min. Reactions were carried out for 1 h at 37°C in 100 mM Tris-HCl pH 7.4, 10 mM MgCl2, 0.2% Triton X-100 and the generation of the fluorescent product was monitored by measuring relative florescence units (RFU) with excitation at 530 nm and emission at 590 nm (Fig 1). This assay was optimized for 384-well format (50 μl total volume per well) based on linearity of the enzymatic activity with respect to time, as well as substrate and enzyme concentrations. […] This fluorescence assay was used for compound screening and IC50 value determinations, based on duplicate eight-point dose response curves.

human nSMase2 [4] = target: T1, human nSMase2; test: Time dependence study of cambinol inhibitory activity; assay type: biochemical; design: Full length human nSMase2 cDNA with a C-terminal Flag tag; host or cells: HEK293, stably transfected; crude cell lysate used as enzyme; details: pre-incubation up to 2 h
Procedure: ^bCambinol IC50 values were determined from 8-points dose response curves run in duplicate.

B. cereus nSMase, sequence (P11889 28-333): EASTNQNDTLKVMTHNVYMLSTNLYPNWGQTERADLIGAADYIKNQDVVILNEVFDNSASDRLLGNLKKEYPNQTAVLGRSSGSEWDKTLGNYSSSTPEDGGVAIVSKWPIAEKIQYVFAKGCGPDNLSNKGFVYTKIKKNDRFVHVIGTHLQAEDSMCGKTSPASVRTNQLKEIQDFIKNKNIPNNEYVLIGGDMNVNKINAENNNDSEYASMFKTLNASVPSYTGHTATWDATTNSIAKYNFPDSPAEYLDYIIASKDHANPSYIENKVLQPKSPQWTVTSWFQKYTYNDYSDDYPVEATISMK

## O=c1[nH]c(=S)[nH]c(-c2ccccc2)c1Cc1c(O)ccc2ccccc12 [Cambinol, cambinol]
[1]
  apoptosis: induced apoptosis
SIRT2
  IC50: 59 µM
[2]; 100 ng/ml TNFα 18 h, 0.1 µM Cambinol
  dendrite length, Mean: 9111.111
[2]; 100 ng/ml TNFα 18 h, 0.3 µM Cambinol
  dendrite length, Mean: 11450
[2]; 100 ng/ml TNFα 18 h, 1 µM Cambinol
  dendrite length, Mean: 13799
[2]; 100 ng/ml TNFα 18 h, 3 µM Cambinol
  dendrite length, Mean: 14262.5
[2]; 100 ng/ml TNFα 18 h, 10 µM Cambinol
  dendrite length, Mean: 18867
[2]; 100 ng/ml TNFα 18 h, 30 µM Cambinol
  dendrite length, Mean: 16000
[2]; No TNFα, 30 µM Cambinol
  dendrite length, Mean: 15151.25
[2]; decrease in dendritic length
  effect on TNFα-induced dendrite damage: prevented; also recorded: protected
B. cereus nSMase
  IC50: 5 µM
macrophages
  TNF-α and IL-6 release: effectively inhibited
Human nSMase2 [3]; 1/[SM] 0.002 µM^-1, 2 µM Cambinol
  1/V: 0.00052 h/RFU
Human nSMase2 [3]; 1/[SM] 0.002 µM^-1, 3 µM Cambinol
  1/V: 0.00066 h/RFU
Human nSMase2 [3]; 1/[SM] 0.002 µM^-1, 5 µM Cambinol
  1/V: 0.00102 h/RFU
Human nSMase2 [3]; 1/[SM] 0.003 µM^-1, 2 µM Cambinol
  1/V: 0.00062 h/RFU
Human nSMase2 [3]; 1/[SM] 0.003 µM^-1, 3 µM Cambinol
  1/V: 0.00078 h/RFU
Human nSMase2 [3]; 1/[SM] 0.003 µM^-1, 5 µM Cambinol
  1/V: 0.00109 h/RFU
Human nSMase2 [3]; 1/[SM] 0.006 µM^-1, 2 µM Cambinol
  1/V: 0.00075 h/RFU
Human nSMase2 [3]; 1/[SM] 0.006 µM^-1, 3 µM Cambinol
  1/V: 0.00095 h/RFU
Human nSMase2 [3]; 1/[SM] 0.006 µM^-1, 5 µM Cambinol
  1/V: 0.00128 h/RFU
Human nSMase2 [3]; 1/[SM] 0.013 µM^-1, 2 µM Cambinol
  1/V: 0.00096 h/RFU
Human nSMase2 [3]; 1/[SM] 0.013 µM^-1, 3 µM Cambinol
  1/V: 0.00118 h/RFU
Human nSMase2 [3]; 1/[SM] 0.013 µM^-1, 5 µM Cambinol
  1/V: 0.00146 h/RFU
Human nSMase2 [3]; [SM] 19.5 µM, 2 µM Cambinol
  V: 641 RFU/h
Human nSMase2 [3]; [SM] 19.5 µM, 3 µM Cambinol
  V: 571 RFU/h
Human nSMase2 [3]; [SM] 19.5 µM, 5 µM Cambinol
  V: 500 RFU/h
Human nSMase2 [3]; [SM] 39.0 µM, 2 µM Cambinol
  V: 752 RFU/h
Human nSMase2 [3]; [SM] 39.0 µM, 3 µM Cambinol
  V: 663 RFU/h
Human nSMase2 [3]; [SM] 39.0 µM, 5 µM Cambinol
  V: 567 RFU/h
Human nSMase2 [3]; [SM] 78.0 µM, 2 µM Cambinol
  V: 1042 RFU/h
Human nSMase2 [3]; [SM] 78.0 µM, 3 µM Cambinol
  V: 849 RFU/h
Human nSMase2 [3]; [SM] 78.0 µM, 5 µM Cambinol
  V: 684 RFU/h
Human nSMase2 [3]; [SM] 156.0 µM, 2 µM Cambinol
  V: 1336 RFU/h
Human nSMase2 [3]; [SM] 156.0 µM, 3 µM Cambinol
  V: 1055 RFU/h
Human nSMase2 [3]; [SM] 156.0 µM, 5 µM Cambinol
  V: 784 RFU/h
Human nSMase2 [3]; [SM] 313.0 µM, 2 µM Cambinol
  V: 1621 RFU/h
Human nSMase2 [3]; [SM] 313.0 µM, 3 µM Cambinol
  V: 1288 RFU/h
Human nSMase2 [3]; [SM] 313.0 µM, 5 µM Cambinol
  V: 922 RFU/h
Human nSMase2 [3]; human nSMase2
  mode of inhibition (MOI): uncompetitive
Human nSMase2 [4]
  time dependence of inhibition: did not change; also recorded: independent of pre-incubation time
